# Structures can show the parent of a compound that is named as a salt.
# Key:
# [1] = tested on: Wistar fatty rats; test: Glycated hemoglobin value in Wistar fatty rats given the compound in powder diet; type: in vivo, rat; conditions: for decrease in the glycated hemoglobin value, corrected for control group: minus decrease in control a group; for decrease in glycated hemoglobin value (before minus after administration): male Wistar fatty rats
# Method: In this Experimental Example, the blood of the rats were taken in a microtube finally containing 0.01M EDTA as an anticoagulant agent, for the measurement of blood glucose level and glycated hemoglobin value. The glycated hemoglobin value was measured by high performance liquid chromatograph (HLC-723GhbVA1c2.2 (product name, manufactured by Tosoh Corporation)) using an aminophenyl boronate affinity column and an absorbance (415 nm) detection method. For the mobile phase, eluents A, B (manufactured by Tosoh Corporation) were used, and the conditions set for chromatography, such as column temperature, flow rate and the like, followed the standard conditions set for this chromatography. […] The glycated hemoglobin value was measured at 4 and 5 weeks after the start of the experiment.
# [2] = tested on: Diabetes mellitus patients; test: Hemoglobin A1c value in diabetes mellitus patients after oral administration; type: in vivo, human; conditions: 30 mg daily dose
# Method: Diabetes mellitus patients (134 patients, age 57.6±11.5 years old, fasting blood glucose level 183.2±35.2 mg/dl, hemoglobin A1c value 9.27±1.60%) were divided into 2 groups.
structure (smiles),measurement,setting,value
CCc1ccc(CCOc2ccc(CC3SC(=O)NC3=O)cc2)nc1 (centres unmarked) [pioglitazone hydrochloride],"decrease in the glycated hemoglobin value, corrected for control group","[1]; b group, 0.8 mg/kg body weight daily in diet, 4 weeks",1.1%
same,"decrease in the glycated hemoglobin value, corrected for control group","[1]; b group, 0.8 mg/kg body weight daily in diet, 5 weeks",1.3%
same,decrease in glycated hemoglobin value (before minus after administration),"[1]; b group, 0.8 mg/kg body weight daily in diet, 4 weeks after start of administration",1.4%
same,decrease in glycated hemoglobin value (before minus after administration),"[1]; b group, 0.8 mg/kg body weight daily in diet, 5 weeks after start of administration",1.9%
same,"decrease in the glycated hemoglobin value, corrected for control group","[1]; c group, 2.4 mg/kg body weight daily in diet, 4 weeks",2.5%
same,"decrease in the glycated hemoglobin value, corrected for control group","[1]; c group, 2.4 mg/kg body weight daily in diet, 5 weeks",2.7%
same,decrease in glycated hemoglobin value (before minus after administration),"[1]; c group, 2.4 mg/kg body weight daily in diet, 4 weeks after start of administration",2.8%
same,decrease in glycated hemoglobin value (before minus after administration),"[1]; c group, 2.4 mg/kg body weight daily in diet, 5 weeks after start of administration",3.3%
same,decrease in the hemoglobin A1c value,[2]; 8 weeks after start of administration,0.70%
same,"decrease in hemoglobin A1c value, corrected for placebo group","[2]; 8 weeks, minus decrease in placebo group",0.68%
same,decrease in the hemoglobin A1c value,[2]; 12 weeks after start of administration,1.08%

# From US20050142065A1, “Screening method” (priority 2002, published 2005)
